These results are taken from patent US12116364B2, “Heteroaryl compounds and uses thereof” (APRINOIA THERAPEUTICS INC., priority 2018, dated 2024).

pKd, pKi: −log10 of the molar value. A value given as a limit tells only on which side of the number the result lay.

Assay [1] concerns the target recombinant tau proteins (human Tau, heparin-fiberized) (Homo sapiens, UniProt P10636). Briefly: Fluorescence quantitative Tau binding assay in vitro. Particulars: 0.04 uM fiberized recombinant tau, 30 mM Tris pH 7.5, 1 h, fluorometric saturation curve. The method, then:
Expression and Purification of Human Tau Protein
• pET41a-Tau wild type • One Shot® BL21(DE3) Chemically Competent E. coli (Invitrogen, C600003) • Kanamycin sulfate (Sangon Biotech, A506636) • IPTG (Sangon Biotech, A100487) • Pipes buffer (100 mM Pipes, pH6.8, 1 mM EGTA, 1 mM MgSO4) • Hepes buffer (25 mM Hepes, pH7.2, 0.1 mM EDTA, 0.5 mM DTT, 100 mM NaCl) • Q-Sepharose Fast Flow column (GE Healthcare, 17-0510-01) • SP-Sepharose Fast Flow column (GE Healthcare, 17-0729-01) Procedures: Protein Expression: • Step 1: Transform 1 uL expression plasmid pET41a-tau wt into one One Shot® BL21(DE3) Chemically Competent E. coli, on ice 30 min. • Step 2: 42° C. heat shock 90 second and on ice 2 min, 37° C. recovery for 30 min, Plate small amount on LB(Kan+) agar plate incubate overnight at 37° C. • Step 3: Pick and resuspend a single colony in 200 mL liquid culture with 50 ug/mL Kanamycin to produce a starter culture. Inoculate starter culture and shake 200 rpm overnight at 37° C. • Step 4: Add 100× dilution Starter into fresh culture medium (Kan+) shake 200 rpm at 37° C. until OD600=0.8. • Step 5: Add IPTG (final conc. 1 mM) and express protein for 3 hr. • Step 6: Collect cell pellet and store at −80° C. for purification. Protein Purification: • Step 1: Cell pellet was resuspended in Pipes buffer. • Step 2: Sonication and centrifugation (15,000 rpm, 15 min at 4° C. • Step 3: The supernatant was placed in a boiling water bath for 20 min and subsequently centrifuged. The heat-stable proteins in the supernatant were loaded onto a Q-Sepharose Fast Flow column (20 mL) • Step 4: The flow through containing tau was loaded onto SP-Sepharose Fast Flow column (10 mL), eluted with Pipes buffer containing 0.2M NaCl. • Step 6: Fractions containing tau were pooled, concentrated and dialyzed against Hepes buffer, stored at −80° C. • Step 7: Reload SP-Flow through into Q-Sepharose Fast Flow column (20 mL) and SP-Sepharose Fast Flow column (10 mL) again, eluted with Pipes buffer containing 0.2M NaCl. • Step 8: Fractions containing tau were pooled, concentrated and dialyzed against Hepes buffer, stored at −80° C. Repeat step 6-7 twice, Collect all above all elution product and concentrated. Biological Assays Fluorescence Quantitative Tau Binding Assay In Vitro
2 uM of recombinant tau proteins and 15 uM of heparin were fiberized in 30 mM Tris (pH 7.5) buffer by overnight incubation at 37° C. 0.04 uM of recombinant tau proteins which was diluted in 30 mM Tris buffer (pH 7.5) was then reacted with test compounds (containing 1% DMSO) for 1 h. Regarding the fluorometric data, the binding saturation curve was created and the parameter estimation method was conducted using Prism software (GraphPad). Kd values were determined for each of test compounds. Table A lists Kd values of exemplary test compounds.

Assay [2] deals with [11C]PBB3 binding sites (tau aggregates) in temporal cortex homogenates of an Alzheimer's disease patient (Homo sapiens, UniProt P10636). Description: Fluorescence competitive binding assay in vitro ([11C]PBB3 displacement in Alzheimer's disease temporal cortex homogenates). Particulars: 5 nM [11C]PBB3, AD temporal cortex homogenate (100 μg tissue), 30 min, room temperature. The method, then:
Fluorescence competitive binding assay in vitro was performed as reported previously1. Frozen tissues derived from the temporal cortex of an Alzheimer's disease patient was homogenized in 50 mM Tris-HCl buffer, pH 7.4, containing protease inhibitor cocktail (cOmplete™, EDTA-free; Roche), and stored at −80° C. pending analyses. To assay radioligand binding with homologous or heterologous blockade, these homogenates (100 μg tissue) were incubated with 5 nM [11C]PBB3 (molar radioactivity: 100-150 GBq/μmol) in the absence or presence of unlabeled PBB3 at varying concentrations ranging from 10-11-106 M in Tris-HCl buffer containing 10% ethanol, pH 7.4, for 30 min at room temperature. Non-specific binding of [11C]PBB3 was determined in the presence of 5×10^−7 M PBB3. Samples were run once only and specific radioligand binding was determined as pmol/g tissue. Inhibition constant (Ki) and percentage of displacement were determined by using non-linear regression to fit a concentration-binding plot to one-site and two-site binding models derived from the Cheng-Prusoff equation with GraphPad Prism version 6.0 (GraphPad Software), followed by F-test for model selection. In a one-site homologous blockade model, dissociation constant (Kd) was calculated from homologous competitive binding using this function: Kd=Ki=IC50−Radioligand
where IC50 and [Radioligand] stand for the concentration of the competitor inducing 50% inhibition and radioligand concentration, respectively. Experiments with [^11C]PBB3 and unlabeled PBB3 were performed in a dimly lit condition to avoid photoconversion of the compounds. Table B lists Ki values of exemplary test compounds.

Assay [3] relates to tau aggregates (tangles/threads) in temporal cortex sections of an AD brain. Description: Histological examination by fluorescence staining of AD brain sections. In kind it is binding, human. Particulars: 0.001% (W/V) compound in 50% ethanol, 30 min, relative to PBB3; for Fluorescent binding Tangle: score for tangles; for Fluorescent binding Thread: score for threads. The procedure: The fluorescence binding assessment was performed as reported previously^1. For fluorescence labeling with PBB3 and test compounds, deparaffinized temporal cortex sections of an AD brain were incubated in 50% ethanol containing 0.001% (W/V) of PBB3 or test compound at room temperature for 30 min. The samples were rinsed with 50% ethanol for 5 min, dipped into distilled water twice for 3 min, and mounted in non-fluorescent mounting media ([…]; Vector Laboratories). Fluorescence images were captured using a DM4000 microscope (Leica) equipped with a custom filter cube for PBB3 (excitation band-pass at 391-437 nm and suppression low-pass with 458 nm cutoff).

Sequence of recombinant tau proteins (human Tau, heparin-fiberized) (P10636 whole entry): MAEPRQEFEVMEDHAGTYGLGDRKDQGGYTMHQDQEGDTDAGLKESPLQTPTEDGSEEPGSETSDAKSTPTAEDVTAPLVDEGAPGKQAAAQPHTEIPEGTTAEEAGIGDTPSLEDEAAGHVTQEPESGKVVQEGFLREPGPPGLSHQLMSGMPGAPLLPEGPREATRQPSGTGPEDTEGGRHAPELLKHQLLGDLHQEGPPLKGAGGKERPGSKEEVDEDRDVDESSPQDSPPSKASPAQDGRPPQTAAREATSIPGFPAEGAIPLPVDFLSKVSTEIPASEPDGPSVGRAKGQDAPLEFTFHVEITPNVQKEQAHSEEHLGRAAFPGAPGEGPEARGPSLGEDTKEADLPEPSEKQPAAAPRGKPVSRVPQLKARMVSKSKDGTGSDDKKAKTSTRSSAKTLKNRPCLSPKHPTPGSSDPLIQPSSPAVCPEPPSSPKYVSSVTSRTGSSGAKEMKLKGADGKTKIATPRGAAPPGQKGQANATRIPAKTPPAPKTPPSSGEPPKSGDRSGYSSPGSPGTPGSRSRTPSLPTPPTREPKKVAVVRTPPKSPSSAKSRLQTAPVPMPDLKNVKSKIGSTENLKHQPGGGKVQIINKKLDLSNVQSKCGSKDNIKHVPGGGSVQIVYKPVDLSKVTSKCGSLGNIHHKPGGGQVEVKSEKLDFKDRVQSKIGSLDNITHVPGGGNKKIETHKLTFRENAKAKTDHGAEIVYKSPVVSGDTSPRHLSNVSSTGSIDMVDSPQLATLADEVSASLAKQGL
Sequence of [11C]PBB3 binding sites (tau aggregates) in temporal cortex homogenates of an Alzheimer's disease patient (P10636 623-695 limits assumed): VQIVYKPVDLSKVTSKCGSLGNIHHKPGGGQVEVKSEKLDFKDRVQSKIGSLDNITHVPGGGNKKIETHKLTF

As to `CNc1ccc(-c2ccc(-c3cc4ccncc4[nH]3)nc2F)cn1` [Compound S, 5-[2-Fluoranyl-6-(1H-pyrrolo[2,3-c]pyridin-2-yl)pyridin-3-yl]-N-methyl-pyridin-2-amine], the pKd in assay [1] was 6.03. In assay [2], this molecule gave a pKi of 7.82. Besides, in assay [3], the “Fluorescent binding Tangle” value is reported as 3/3 and the “Fluorescent binding Thread” value is on record as 3/3.

`CNc1ccc(-c2ccc(-c3cc4cc(F)ncc4[nH]3)cc2)cn1` [Compound B, 5-(4-(5-Fluoro-1H-pyrrolo[2,3-c]pyridin-2-yl)phenyl)-N-methylpyridin-2-amine]: the pKd in assay [1] is 6.00. The pKi in assay [2] was 8.70. Moreover, in assay [3], the “Fluorescent binding Tangle” value is 3/3 and the “Fluorescent binding Thread” value was 3/3.

As for `CNc1ccc(-c2ccc(-c3nc4ccc(NCC(O)CF)cc4s3)nc2)cn1` (stereo not drawn) [Compound V, 1-Fluoranyl-3-[[2-[5-[6-(methylamino)pyridin-3-yl]pyridin-2-yl]-1,3-benzothiazol-6-yl]amino]propan-2-ol], in assay [1], the pKd was 5.45. Further, the pKi in assay [2] is 8.12. In assay [3], the “Fluorescent binding Tangle” value is 2.5/2.5 and the “Fluorescent binding Thread” value is given as 2.5/2.5.

Consider `Nc1ccc(-c2ccc(-c3nc4ccncc4o3)cc2)cn1` [Compound H, 5-(4-(Oxazolo[5,4-c]pyridin-2-yl)phenyl)pyridin-2-amine], for which the pKd in assay [1] was 7.05.

With `CN(C)c1ccc(-c2ccc(-c3cn4cc(OCC(O)CF)ccc4n3)cc2)cn1` (stereo not drawn) [Compound O, 1-(2-(4-(6-(Dimethylamino)pyridin-3-yl)phenyl)imidazo[1,2-a]pyridin-6-yloxy)-3-fluoropropan-2-ol], the pKd in assay [1] was 6.57. In assay [2], the pKi is 8.00. Moreover, in assay [3], the “Fluorescent binding Tangle” value is 1.5/1.5 and the “Fluorescent binding Thread” value is given as 1.5/1.5.

`CNc1ccc(-c2ccc(-c3cc4ccncc4[nH]3)cc2)c(F)n1` [Compound D, 5-(4-(1H-Pyrrolo[2,3-c]pyridin-2-yl)phenyl)-6-fluoro-N-methylpyridin-2-amine]: the pKd in assay [1] is 6.16. This molecule also gave a pKi in assay [2] of 9.00. In assay [3], the “Fluorescent binding Tangle” value is given as 3/3 and the “Fluorescent binding Thread” value was 3/3.

In the case of `COc1ccc(-c2ccc(-c3cc4ccn(CCO)cc-4n3)cc2)cc1` [Compound F, 2-(2-(4′-Methoxybiphenyl-4-yl)-6H-pyrrolo[2,3-c]pyridine-6-yl)ethanol], the pKd in assay [1] is 6.47.

Regarding `CNc1ccc(-c2ccc(-c3nc4ccc(NCC(O)CF)cc4s3)cc2)cn1` (stereo not drawn) [Compound J, 1-Fluoranyl-3-[[2-[4-[6-(methylamino)pyridin-3-yl]phenyl]-1,3-benzothiazol-6-yl]amino]propan-2-ol], the pKd in assay [1] is 6.05. For the same molecule, the pKi in assay [2] was 8.30. In assay [3], the “Fluorescent binding Tangle” value is 3/3 and the “Fluorescent binding Thread” value was 3/3.

Regarding `CN(C)c1ccc(-c2ccc(-c3nc4ccncc4n3CCF)cc2)cn1` [Compound K, 5-[4-[3-(2-fluoranylethyl)imidazo[4,5-c]pyridin-2-yl]phenyl]-N,N-dimethyl-pyridin-2-amine], the pKd in assay [1] was 5.46.

Turning to `CN(C)c1ccc(-c2ccc(-c3cc4ccn(CC(O)CF)cc-4n3)cc2)cn1` (stereo not drawn) [Compound G, 1-(2-(4-(6-(Dimethylamino)pyridin-3-yl)phenyl)-6H-pyrrolo[2,3-c]pyridin-6-yl)-3-fluoropropan-2-ol], the negative-log Kd (pKd) in assay [1] was 6.55. For the same molecule, in assay [2], the pKi was 8.00. In addition, in assay [3], the “Fluorescent binding Tangle” value turned out to be 2 and the “Fluorescent binding Thread” value amounted to 0.5.

With `CNc1ccc(-c2ccc(-c3cc4cnccc4[nH]3)cc2)cn1` [Compound M, 5-(4-(1H-Pyrrolo[3,2-c]pyridin-2-yl)phenyl)-N-methylpyridin-2-amine], in assay [1], the negative-log Kd (pKd) was 5.58. The pKi in assay [2] was 7.82. Further, in assay [3], the “Fluorescent binding Tangle” value is 2.5 and the “Fluorescent binding Thread” value turned out to be 2.

As to `CNc1ccc(-c2ccc(-c3cc4ccncc4[nH]3)c(F)n2)cn1` [Compound E, 6-Fluoro-N-methyl-5-(1H-pyrrolo[2,3-c]pyridin-2-yl)-2,3′-bipyridin-6′-amine], the pKd in assay [1] was 5.57. In assay [2], this molecule showed a pKi of 8.30. For the same molecule, in assay [3], the “Fluorescent binding Tangle” value is given as 3/3 and the “Fluorescent binding Thread” value is listed as 3/3.

On to `CNc1ccc(-c2ccc(-c3cn4cc(OCC(O)CF)ccc4n3)cc2)cn1` (stereo not drawn) [Compound N, 1-Fluoro-3-(2-(4-(6-(methylamino)pyridin-3-yl)phenyl)imidazo[1,2-a]pyridin-6-yloxy)propan-2-ol], for which the pKd in assay [1] was 6.59. In assay [2], the negative logarithm of the Ki (pKi) is 7.70. For the same molecule, in assay [3], the “Fluorescent binding Tangle” value is on record as 0.5 and the “Fluorescent binding Thread” value came to 0.

Turning to `COc1ccc2nc(-c3ccc(-c4ccc(N(C)C)nc4)nc3F)cn2c1` [Compound U, 6-Fluoro-5-(6-methoxyimidazo[1,2-a]pyridin-2-yl)-N,N-dimethyl-2,3′-bipyridin-6′-amine], the pKd in assay [1] is 5.82.

Turning to `CN(C)c1ccc(-c2ccc(-c3nc4ccc(NCC(O)CF)cc4s3)c(F)n2)cn1` (stereo not drawn) [Compound X, 1-[[2-[6-[6-(dimethylamino)pyridin-3-yl]-2-fluoranyl-pyridin-3-yl]-1,3-benzothiazol-6-yl]amino]-3-fluoranyl-propan-2-ol], the pKd in assay [1] was 6.77.

Regarding `CNc1ncc(-c2ccc(-c3nc4ccc(N)cc4s3)c(F)n2)cn1` [Compound Y, 2-[2-Fluoranyl-6-[2-(methylamino)pyrimidin-5-yl]pyridin-3-yl]-1,3-benzothiazol-6-amine], the pKd in assay [1] is under 5.00.

As to `Nc1cccc(-c2ccc(-c3cc4ccncc4[nH]3)cc2)c1` [Compound A, 3-[4-(1H-Pyrrolo[2,3-c]pyridin-2-yl)phenyl]aniline], in assay [1], the pKd was 6.30. This molecule gave a pKi in assay [2] of 7.35. In assay [3], the “Fluorescent binding Tangle” value is reported as 2/2 and the “Fluorescent binding Thread” value is 2/2.

As for `CNc1ncc(-c2cc(F)c(-c3nc4ccc(N)cc4s3)cn2)cn1` [Compound Z, 2-(4-Fluoro-6-(2-(methylamino)pyrimidin-5-yl)pyridin-3-yl)benzo[d]thiazol-6-amine], in assay [1], the pKd is 5.84. This molecule also had a pKi in assay [2] of 8.30. For the same molecule, in assay [3], the “Fluorescent binding Tangle” value is on record as 3/3 and the “Fluorescent binding Thread” value was 3/3.

The term pKd denotes the negative decadic logarithm of the Kd, by convention in mol/L. A word on the pKi: it is −log10 of the Ki, conventionally taken in molar units. A low value points to a high Ki.
